Consider 3 molecules from patent publication US6537980B1, “Vitamin D analogues and their pharmaceutical use” (Leo Pharmaceutical Products Ltd., priority 1999, dated 2003).

“Also recorded” adds a separate entry of the source.

In one series the test system is rats. Put plainly: Calcemic activity in rats in vivo. To be noted: for Calc. rel.: calcemic activity in rats relative to 1,25(OH)2D3, >1 = more active. Set-up: species or system rat. The text has this:
Generally, the classical effects of 1,25(OH)2D3 on the calcium balance in the organism, including calcemic and calciuric activities, are unwanted in the vitamin D analogues of the present invention, in which selectivity for e.g. inhibition of the proliferation of certain cells, absence of calcemic effects and skin irritation is desired.

Series [1] deals with HaCaT human skin keratinocyte cell line. Put plainly: HaCaT antiproliferative assay measuring 3H-thymidine uptake. It counts as cell-based. The settings on record: for HaCaT rel.: relative to 1,25(OH)2D3, ratio IC50 of 1,25(OH)2D3 / IC50 of compound, 3H-thymidine incorporation, >1 = more active. The text has this: An assay for the rating of test compounds for antiproliterative activity in skin cells, e.g. antipsoriatic effect, is the in vitro assay using HaCaT, a spontaneously immortalised, non-tumorigenic human skin keratinocyte cell line (Mørk Hansen, C. et al., J. Invest. Dermatol 1, 44-48 (1996)), measuring ^3H -thymidine uptake.
(In general: Incorporation of labelled thymidine or its analogues reports DNA synthesis.)

The target in another series is T1, vitamin D receptor (Homo sapiens, UniProt P11473).
T1 sequence (P11473 1-427): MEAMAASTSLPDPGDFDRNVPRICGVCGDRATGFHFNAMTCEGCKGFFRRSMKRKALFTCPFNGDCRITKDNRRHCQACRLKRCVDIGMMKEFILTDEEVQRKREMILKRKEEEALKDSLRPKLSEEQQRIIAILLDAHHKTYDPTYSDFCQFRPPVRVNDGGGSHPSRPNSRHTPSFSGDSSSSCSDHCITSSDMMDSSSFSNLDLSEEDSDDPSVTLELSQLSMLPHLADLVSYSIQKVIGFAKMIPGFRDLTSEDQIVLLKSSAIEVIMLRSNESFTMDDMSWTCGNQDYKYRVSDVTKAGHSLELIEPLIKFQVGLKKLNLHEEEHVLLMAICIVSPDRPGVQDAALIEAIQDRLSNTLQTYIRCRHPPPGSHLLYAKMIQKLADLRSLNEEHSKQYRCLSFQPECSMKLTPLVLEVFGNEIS
Nature of the series: Binding to the vitamin D receptor in vitro, relative to Calcitriol. The settings on record: relative to 1,25(OH)2D3; ratio IC50 of 1,25(OH)2D3 / IC50 of compound; >1 = more active.

The subject of another series is hairless guinea pigs. Nature of the series: Skin irritation, occlusive patch test in hairless guinea pigs. It counts as in vivo, guinea pig. Set-up: key to Skin irritation score: 0: Substances of no irritation; +: Substances of doubtful or very low irritancy compared to calcitriol; ++: Substances of low irritancy compared to calcitriol; +++: Substances with irritances in the same range as calcitriol; ++++: Substances of more irritancy than calcitriol; +++++: Very irritative substances compared to calcftriol. To be noted: for Skin irritation score: occlusive patch 48 hours, 500, 50 and 5 μg/ml, clinical grading, LDPI, erythema. As for the experimental part: Skin irritation was assessed in hairless guinea pigs. Randomised occlusive patch testing for 48 hours was used. Each analogue was tested at three dose levels (500 μg/ml, 50 μg/ml, and 5 μg/ml) and a placebo solution was also included. Assessment of skin irritation was blinded and based upon clinical grading and objective measurement of cutaneous blood flow (laser Doppler perfusion imaging, LDPI) and erythema (Minolta ChromaMeter). Furthermore, epidermal thickness as an indication of epidermal hyperplasia was measured.
The irritancy scores were as defined below:
0 Substances of no irritation
+ Substances of doubtful or very low irritancy compared to calcitriol
++ Substances of low irritancy compared to calcitriol
+++ Substances with irritances in the same range as calcitriol
++++ Substances of more irritancy than calcitriol
+++++ Very irritative substances compared to calcftriol

With `C=C1C(=CC=C2CCCC3(C)C2CCC3C(C)COCc2cccc(C(C)(C)O)c2)CC(O)CC1O` [Compound 100, 1(S),3(R)-Dihydroxy-20(R)-[((3-(2-hydroxy-2-propyl)-phenyl)-methoxy)-methyl]-9,10-seco-pregna-5(Z),7(E),10(19)-triene], in the series on rats, the Calc. rel. is recorded as 0.001. Besides, the “calcemic activity (in words)” value in the series on rats (rats in vivo, compared with prior art compounds) was “very low calcemic activity; also recorded: negligible”. Moreover, the “antiproliferative activity in skin cells (in words)” value in series [1] (HaCaT, compared with Calcitriol / 1,25(OH)2D3) is recorded as “same potency as the compound Calcitriol”. Further, the HaCaT rel. in series [1] is reported as 1. Further, the Receptor binding rel. at vitamin D receptor was determined as 0.01. In addition, the “skin irritation (in words)” value in the series on hairless guinea pigs (compared with prior art compounds) was “considerably less skin irritation than compounds of the prior art”. In addition, the Skin irritation score entry in the series on hairless guinea pigs is reported as “+”.

With `C=C1/C(=C\C=C2/CCC[C@]3(C)[C@@H]([C@H](C)CCCC(C)(C)O)CC[C@@H]23)C[C@@H](O)C[C@@H]1O` [Calcitriol, 1α,25-dihydroxy-vitamin D3, reference compound], the Calc. rel. with rats is 1. In addition, in series [1], the HaCaT rel. is 1. Besides, in the series on hairless guinea pigs, the Skin irritation score result is given as “+++”.

As to `C=C1/C(=C\C=C2/CCC[C@]3(C)[C@@H]([C@H](C)/C=C/[C@@H](O)C4CC4)CC[C@@H]23)C[C@@H](O)C[C@@H]1O` [Calcipotriol, reference compound], the Calc. rel. in the series with rats is listed as 0.005. In series [1], the HaCaT rel. is given as 2. The Skin irritation score entry in the series with hairless guinea pigs was “+++”.
